The values below come from patent publication US9365572B2, “PI3K and/or mTOR inhibitor” (XUANZHU PHARMA CO., LTD., priority 2012, dated 2016).

For one data set, the target named is Adenosine A1 (Homo sapiens (Human), UniProt P30542). The data set can be described thus: Radioligand binding assay No. 200510. The settings on record: test substance 10 μM, read-out: Inhibitory rate (%), Adenosine A1.
The next data set concerns the target Adenosine A2A (Homo sapiens (Human), UniProt P29274). The data set can be described thus: Radioligand binding assay No. 200610. The settings on record: test substance 10 μM, read-out: Inhibitory rate (%), Adenosine A2A.
Data set [1] concerns Calcium Channel L-Type, Benzothiazepine. The data set can be described thus: Radioligand binding assay No. 214510. The settings on record: test substance 10 μM; rat.
The subject of a further data set is GABAA, Muscimol, Central. In words: Radioligand binding assay No. 226500. The following applies: test substance 10 μM; rat.
For a further data set, the target named is GABAB1A (Homo sapiens (Human), UniProt Q9UBS5). In words: Radioligand binding assay No. 228610. The following applies: test substance 10 μM, read-out: Inhibitory rate (%), GABAB1A.
A further data set concerns the target Histamine H1 (Homo sapiens (Human), UniProt P35367). The data set can be described thus: Radioligand binding assay No. 239610. The settings on record: test substance 10 μM, read-out: Inhibitory rate (%), Histamine H1.
The target of the next data set is Interleukin IL-1 (Mus musculus (Mouse), UniProt P13504). The data set can be described thus: Radioligand binding assay No. 243520. The settings on record: test substance 10 μM, read-out: Inhibitory rate (%), Interleukin IL-1.
For a further data set, the target named is Muscarinic M2 (Homo sapiens (Human), UniProt P08172). The data set can be described thus: Radioligand binding assay No. 252710. The following applies: test substance 10 μM, read-out: Inhibitory rate (%), Muscarinic M2.
Data set [2] addresses Platelet Activating Factor (PAF) (Homo sapiens (Human), UniProt P25105). The data set can be described thus: Radioligand binding assay No. 265010. The settings on record: test substance 10 μM, read-out: Inhibitory rate (%), Platelet Activating Factor (PAF).
In another data set the target is Potassium Channel hERG (Homo sapiens (Human), UniProt Q12809). The data set can be described thus: Radioligand binding assay No. 265900. The following applies: test substance 10 μM, read-out: Inhibitory rate (%), Potassium Channel hERG.
Another data set concerns the target Prostanoid EP4 (Homo sapiens (Human), UniProt P35408). In words: Radioligand binding assay No. 268420. The following applies: test substance 10 μM, read-out: Inhibitory rate (%), Prostanoid EP4.
Another data set concerns Purinergic P2X. In words: Radioligand binding assay No. 268700. The following applies: test substance 10 μM; rabbit.
A further data set has as its system Rolipram. The data set can be described thus: Radioligand binding assay No. 270000. The settings on record: test substance 10 μM; rat.
The target of data set [3] is Serotonin (5-Hydroxytryptamine) 5-HT2B (Homo sapiens (Human), UniProt P41595). The data set can be described thus: Radioligand binding assay No. 271700. The settings on record: test substance 10 μM, read-out: Inhibitory rate (%), Serotonin (5-Hydroxytryptamine) 5-HT2B.
Data set [4] deals with Transporter, Norepinephrine (NET) (Homo sapiens (Human), UniProt P23975). In words: Radioligand binding assay No. 204410. The following applies: test substance 10 μM, read-out: Inhibitory rate (%), Transporter, Norepinephrine (NET).
Another data set relates to A549. In words: In vitro cytological inhibitory activity (XTT). It counts as cell-based. The following applies: Homo sapiens, 72 hrs. On the procedure: A549: Human lung cancer cell line;
(§1) 1. Preparation of agents and compounds:
(§2) • 1.1 Preparation of phosphoric acid buffering solution (PBS): 8 g NaCl, 0.2 g KCl, 1.44 g Na2HPO4 and 0.24 g KH2PO4 were weighed and added to 800 mL ultrapure water. The mixture was adjusted to pH=7.4, and ultrapure water was added to the metered volume of IL. Then the autoclaving was conducted for 20 mins. • 1.2 Preparation of XTT detection working solution: 100 mg (2,3-Bis-(2-methoxy-4-nitro-5-sulfophenyl)-2H-tetrazolium-5-carboxanilide); 2,3-bis(2-methoxy-4-nitro-5-sulfophenyl)-5-[(phenylamino)carbonyl]-2H-tetrazolium hydroxide (XTT) powder was weighed, and dissolved under protection from light 300 mL of phenol red-free and serum-free RPMI1640 culture, which had been warmed up to 50° C. The resulting mixture was filtered, packaged and used immediately or in one week. The complete process was conducted under protection from light. • 1.3 Preparation of the test compound • Preparation of the stock solution of the test compound: The test compound powder was dissolved in DMSO in a concentration of 10 mM. • Preparation of the gradiently diluted solution of the test compound: 10 mM of the stock solution of the test compound was successively and gradiently diluted with DMSO by 4 folds for 10 concentrations. […]

A further data set deals with PC-3. The data set can be described thus: In vitro cytological inhibitory activity (XTT). It counts as cell-based. The following applies: Homo sapiens, 72 hrs. On the procedure: PC-3: Human prostatic carcinoma cell line;
as §1, §2
(Formazan colour is commonly taken as a measure of viable cells.)

A further data set concerns SKOV-3. In words: In vitro cytological inhibitory activity (XTT). Format: cell-based. The settings on record: Homo sapiens, SK-OV-3, 72 hrs. On the procedure: SKOV-3: Human ovarian cancer cell line;
as §1, §2

Chain of Transporter, Norepinephrine (NET) (P23975 whole entry): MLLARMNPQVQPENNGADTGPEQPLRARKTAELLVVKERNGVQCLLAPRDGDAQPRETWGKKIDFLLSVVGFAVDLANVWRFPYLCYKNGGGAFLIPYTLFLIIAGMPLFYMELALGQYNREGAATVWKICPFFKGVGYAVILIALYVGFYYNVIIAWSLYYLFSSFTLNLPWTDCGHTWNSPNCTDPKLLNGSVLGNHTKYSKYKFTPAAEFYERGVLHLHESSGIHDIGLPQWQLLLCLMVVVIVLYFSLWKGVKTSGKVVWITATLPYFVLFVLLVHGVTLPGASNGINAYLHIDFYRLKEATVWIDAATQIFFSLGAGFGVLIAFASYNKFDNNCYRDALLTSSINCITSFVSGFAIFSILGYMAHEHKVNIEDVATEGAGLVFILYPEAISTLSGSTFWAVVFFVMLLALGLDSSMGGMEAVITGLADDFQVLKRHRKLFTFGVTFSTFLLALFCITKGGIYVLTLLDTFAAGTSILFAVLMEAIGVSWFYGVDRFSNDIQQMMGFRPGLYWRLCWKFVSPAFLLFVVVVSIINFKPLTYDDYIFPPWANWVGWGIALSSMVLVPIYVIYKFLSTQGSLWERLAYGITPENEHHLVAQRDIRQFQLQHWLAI
Chain of Adenosine A1 (P30542 whole entry): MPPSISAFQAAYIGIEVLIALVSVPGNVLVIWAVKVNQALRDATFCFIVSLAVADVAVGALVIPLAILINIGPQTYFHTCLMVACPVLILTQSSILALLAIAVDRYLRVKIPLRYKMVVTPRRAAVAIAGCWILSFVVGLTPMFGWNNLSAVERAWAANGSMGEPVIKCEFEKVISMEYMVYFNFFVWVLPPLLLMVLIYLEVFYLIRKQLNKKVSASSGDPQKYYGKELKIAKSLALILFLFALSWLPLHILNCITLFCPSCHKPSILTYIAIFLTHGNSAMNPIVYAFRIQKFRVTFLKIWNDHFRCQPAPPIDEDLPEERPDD
Chain of Serotonin (5-Hydroxytryptamine) 5-HT2B (P41595 whole entry): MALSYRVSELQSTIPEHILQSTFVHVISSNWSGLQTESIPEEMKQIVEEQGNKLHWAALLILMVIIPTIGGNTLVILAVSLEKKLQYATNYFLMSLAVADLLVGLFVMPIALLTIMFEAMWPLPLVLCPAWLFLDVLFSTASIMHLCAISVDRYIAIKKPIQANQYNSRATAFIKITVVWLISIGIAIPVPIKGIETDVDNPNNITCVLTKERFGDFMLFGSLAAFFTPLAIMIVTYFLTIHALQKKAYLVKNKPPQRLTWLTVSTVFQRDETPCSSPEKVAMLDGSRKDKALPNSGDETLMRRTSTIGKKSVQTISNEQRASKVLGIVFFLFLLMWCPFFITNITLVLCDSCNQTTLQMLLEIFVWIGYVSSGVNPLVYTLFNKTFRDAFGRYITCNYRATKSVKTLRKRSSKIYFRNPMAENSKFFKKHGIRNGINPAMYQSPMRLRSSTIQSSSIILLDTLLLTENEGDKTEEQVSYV
Chain of Muscarinic M2 (P08172 whole entry): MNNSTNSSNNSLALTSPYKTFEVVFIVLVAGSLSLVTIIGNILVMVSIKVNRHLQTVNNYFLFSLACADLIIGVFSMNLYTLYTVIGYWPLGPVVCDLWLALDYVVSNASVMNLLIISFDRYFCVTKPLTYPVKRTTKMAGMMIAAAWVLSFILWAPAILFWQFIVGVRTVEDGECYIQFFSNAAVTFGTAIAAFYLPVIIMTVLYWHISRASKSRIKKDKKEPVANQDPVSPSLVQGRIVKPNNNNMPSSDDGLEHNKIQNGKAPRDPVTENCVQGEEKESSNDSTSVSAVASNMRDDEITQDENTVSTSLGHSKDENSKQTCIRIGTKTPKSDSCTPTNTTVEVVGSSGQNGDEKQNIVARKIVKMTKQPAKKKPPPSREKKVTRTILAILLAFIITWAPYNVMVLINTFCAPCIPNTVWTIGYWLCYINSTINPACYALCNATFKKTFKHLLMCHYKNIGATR
Chain of Prostanoid EP4 (P35408 whole entry): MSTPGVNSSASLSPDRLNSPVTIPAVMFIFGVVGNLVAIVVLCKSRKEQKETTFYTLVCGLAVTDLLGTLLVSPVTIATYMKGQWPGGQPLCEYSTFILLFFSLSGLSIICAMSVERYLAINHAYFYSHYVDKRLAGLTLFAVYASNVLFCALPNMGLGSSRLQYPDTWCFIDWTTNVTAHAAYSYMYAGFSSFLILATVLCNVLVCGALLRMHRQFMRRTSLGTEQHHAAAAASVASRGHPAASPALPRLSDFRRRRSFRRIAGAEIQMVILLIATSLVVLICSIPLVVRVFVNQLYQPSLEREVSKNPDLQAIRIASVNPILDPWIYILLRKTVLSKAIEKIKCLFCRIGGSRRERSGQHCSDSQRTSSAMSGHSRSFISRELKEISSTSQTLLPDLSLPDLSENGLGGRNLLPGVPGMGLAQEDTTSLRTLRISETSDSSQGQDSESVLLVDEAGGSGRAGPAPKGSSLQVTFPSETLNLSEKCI
Chain of Interleukin IL-1 (P13504 20-576): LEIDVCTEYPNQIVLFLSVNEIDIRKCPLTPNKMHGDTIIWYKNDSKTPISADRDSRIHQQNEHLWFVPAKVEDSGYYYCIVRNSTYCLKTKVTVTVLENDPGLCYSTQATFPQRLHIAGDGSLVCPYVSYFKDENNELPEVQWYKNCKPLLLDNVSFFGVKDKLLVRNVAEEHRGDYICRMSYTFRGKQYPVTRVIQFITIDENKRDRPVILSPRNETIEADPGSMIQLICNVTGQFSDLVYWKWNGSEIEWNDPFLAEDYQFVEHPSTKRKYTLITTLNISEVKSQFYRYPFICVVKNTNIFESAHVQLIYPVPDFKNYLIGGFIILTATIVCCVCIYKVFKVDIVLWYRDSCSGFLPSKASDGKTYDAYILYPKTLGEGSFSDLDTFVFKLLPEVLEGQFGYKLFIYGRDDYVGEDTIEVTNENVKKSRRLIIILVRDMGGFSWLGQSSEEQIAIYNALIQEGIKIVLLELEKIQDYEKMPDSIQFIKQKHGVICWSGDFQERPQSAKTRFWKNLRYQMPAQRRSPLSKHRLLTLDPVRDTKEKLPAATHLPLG
Chain of GABAB1A (Q9UBS5 15-961): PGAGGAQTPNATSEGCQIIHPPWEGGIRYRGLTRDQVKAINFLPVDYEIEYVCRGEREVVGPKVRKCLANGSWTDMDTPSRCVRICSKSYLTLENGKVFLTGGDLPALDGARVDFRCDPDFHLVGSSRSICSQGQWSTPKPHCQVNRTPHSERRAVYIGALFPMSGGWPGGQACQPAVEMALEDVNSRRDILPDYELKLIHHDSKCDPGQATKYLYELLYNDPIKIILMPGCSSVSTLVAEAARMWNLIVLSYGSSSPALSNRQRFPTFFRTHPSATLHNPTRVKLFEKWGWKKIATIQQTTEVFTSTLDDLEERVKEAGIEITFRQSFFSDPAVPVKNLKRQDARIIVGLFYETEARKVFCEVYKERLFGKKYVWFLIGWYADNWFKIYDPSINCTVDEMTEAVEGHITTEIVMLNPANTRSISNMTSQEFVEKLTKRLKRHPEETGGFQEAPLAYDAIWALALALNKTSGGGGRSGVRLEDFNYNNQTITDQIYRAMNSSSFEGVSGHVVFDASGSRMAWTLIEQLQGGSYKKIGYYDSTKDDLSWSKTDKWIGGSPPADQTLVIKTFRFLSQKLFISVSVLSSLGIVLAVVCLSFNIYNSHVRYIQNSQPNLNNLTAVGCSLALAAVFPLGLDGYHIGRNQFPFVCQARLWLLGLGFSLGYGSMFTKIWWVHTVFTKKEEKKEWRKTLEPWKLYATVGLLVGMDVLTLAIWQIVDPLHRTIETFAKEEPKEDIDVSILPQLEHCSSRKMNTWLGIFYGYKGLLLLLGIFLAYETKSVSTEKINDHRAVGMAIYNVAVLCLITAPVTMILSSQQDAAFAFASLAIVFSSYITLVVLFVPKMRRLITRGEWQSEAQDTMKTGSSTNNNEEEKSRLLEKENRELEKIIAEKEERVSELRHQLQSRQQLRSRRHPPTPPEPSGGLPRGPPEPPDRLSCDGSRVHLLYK
Chain of Adenosine A2A (P29274 whole entry): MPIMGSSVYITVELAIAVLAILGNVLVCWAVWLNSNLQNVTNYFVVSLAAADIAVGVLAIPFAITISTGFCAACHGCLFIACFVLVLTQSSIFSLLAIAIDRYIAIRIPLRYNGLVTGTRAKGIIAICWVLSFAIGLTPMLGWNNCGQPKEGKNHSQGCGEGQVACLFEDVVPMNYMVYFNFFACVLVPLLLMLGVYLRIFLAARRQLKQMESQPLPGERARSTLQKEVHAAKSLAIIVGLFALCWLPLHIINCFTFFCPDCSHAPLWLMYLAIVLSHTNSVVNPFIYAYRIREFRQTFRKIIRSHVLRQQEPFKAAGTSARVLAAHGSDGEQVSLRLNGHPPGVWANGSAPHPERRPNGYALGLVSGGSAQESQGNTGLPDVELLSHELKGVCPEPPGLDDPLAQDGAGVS
Chain of Platelet Activating Factor (PAF) (P25105 whole entry): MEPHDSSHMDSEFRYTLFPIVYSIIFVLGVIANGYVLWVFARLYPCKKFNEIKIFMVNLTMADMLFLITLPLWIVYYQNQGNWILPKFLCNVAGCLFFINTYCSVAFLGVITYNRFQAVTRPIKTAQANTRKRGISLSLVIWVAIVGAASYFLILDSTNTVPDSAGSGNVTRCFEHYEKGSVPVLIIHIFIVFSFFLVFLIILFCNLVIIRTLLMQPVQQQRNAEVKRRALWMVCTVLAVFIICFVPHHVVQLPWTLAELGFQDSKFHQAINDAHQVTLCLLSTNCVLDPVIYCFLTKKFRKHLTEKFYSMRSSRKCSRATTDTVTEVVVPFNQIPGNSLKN

Take `Nc1ccc(-c2ccc3ncc4c(=O)[nH]c(=O)n(-c5cccc(C(F)(F)F)c5)c4c3n2)cn1` [Compound 5, 9-(6-aminopyridin-3-yl)-1-(3-(trifluoromethyl)phenyl)pyrimido[5,4-c][1,5]naphthyridine-2,4(1H,3H)-dione]: the inhibition at 10 µM on Adenosine A1 was 20%; at Adenosine A2A, 0%; at GABAB1A, 15%; at Histamine H1, 10%; on Interleukin IL-1, 11%; at Muscarinic M2, -4%. Also, the inhibition at 10 µM in data set [2] was 20%; on Potassium Channel hERG it was 2%; at Prostanoid EP4, 19%; in data set [3] it was 13%; in data set [4], -5%. In addition, the “Inhibitory rate (%), Calcium Channel L-Type, Benzothiazepine” value in [1] is 15%. Further, the “Inhibitory rate (%), GABAA, Muscimol, Central” value in the data set with GABAA, Muscimol, Central is given as 18%. Besides, the “Inhibitory rate (%), Purinergic P2X” value in the data set with Purinergic P2X is given as 9%. For the same molecule, the “Inhibitory rate (%), Rolipram” value in the data set on Rolipram is on record as 20%.

As usually defined, the IC50 is the midpoint of a concentration-inhibition curve. In the case of `O=c1[nH]c(=O)n(-c2cccc(C(F)(F)F)c2)c2c1cnc1ccc(-c3cnc4[nH]ccc4c3)nc12` [Compound 30, 9-(1H-pyrrolo[2,3-b]pyridin-5-yl)-1-(3-(trifluoromethyl)phenyl)pyrimido[5,4-c][1,5]naphthyridine-2,4(1H,3H)-dione], the IC50 turned out to be 107 nM with A549, 25.6 nM in the data set on PC-3 and 57.2 nM with SKOV-3.
